These results are taken from US5229381A, “Substituted azetidinones as anti-inflammatory and antidegenerative agents” (Merck & Co., Inc., priority 1991, dated 1993).

For one test, the target named is T1, human polymorphonuclear leukocyte elastase (Homo sapiens, UniProt P08246).
T1 construct: Crude extract of human polymorphonuclear leukocytes (PMN) containing elastase activity; endogenous in cells; host or cells: human polymorphonuclear leukocytes (crude extract)
T1 sequence (P08246 30-247 limits assumed): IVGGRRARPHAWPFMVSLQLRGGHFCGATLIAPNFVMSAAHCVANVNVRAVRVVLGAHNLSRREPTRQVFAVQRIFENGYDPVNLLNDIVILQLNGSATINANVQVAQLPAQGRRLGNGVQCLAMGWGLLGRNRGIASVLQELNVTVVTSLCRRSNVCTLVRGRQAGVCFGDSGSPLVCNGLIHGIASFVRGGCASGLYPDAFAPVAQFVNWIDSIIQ
As to the kind of experiment: Inhibition of human polymorphonuclear leukocyte (granulocyte) elastase via hydrolysis of Boc-AAPAN or Boc-AAPVN. It is filed as biochemical. The following applies: Table I; 2 min after time zero; crude PMN extract, pH 7.5.
Protocol: Enzyme Assays for the Inhibition of Human Polymorphonuclear Leukocyte Elastase Via Hydrolysis of N-t-Boc-alanyl-alanyl-prolylalanine-p-nitroanilide (Boc-AAPAN) or N-t-Boc-alanyl-prolylvaline-p-nitroanilide (Boc-AAPVN) Reagent:
0.05M TES (N-tris[hydroxymethyl]methyl-2-amino-ethanesulfonic acid) Buffer, pH 7.5.
0.2 mM Boc-AAPAN or Boc-AAPVN.
To prepare substrate, the solid was first dissolved in 10.0 ml DMSO. Buffer at pH 7.5 was then added to a final volume of 100 ml.
Crude extract of human polymorphonuclear leukocytes (PMN) containing elastase activity.
Inhibitors (azetidinones) to be tested dissolved in DMSO just before use.
To 1.0 ml of 0.2 mM Boc-AAPAN in a cuvette, 0.01-0.1 ml of DMSO with or without inhibitor was added. After mixing, a measurement was taken at 410 mμ to detect any spontaneous hydrolysis due to presence of test compound. 0.05 Milliliters of PMN extract was then added and the ΔOD/min at 410 mμ was measured and recorded. Beckman model 35 spectrophotometer was used.
Results were also expressed as Ki, the micromolar concentration of the inhibitor (μM) giving 50% of the control enzyme activity; or as ^k obs/I which is the second order rate constant in per mole per second for inactivation of the enzyme.
The elastase activity in the crude PMN extract may vary from one preparation to another. A control of each new batch is run, and the volume added in the assay procedure is adjusted according to activity.
Turning to `CCC1C(=O)NC1OC(C)=O` (centres unmarked) [Table I: H; C2 H5; OCOCH3; H], the “ID50, effective dosage for 50% inhibition of the enzyme activity two minutes after time zero” value turned out to be 15000 µg/mL.

As for `CC(=O)OC1CC(=O)N1C(C)=O` (centres unmarked) [Table I: H; H; OCOCH3; COCH3], the “ID50, effective dosage for 50% inhibition of the enzyme activity two minutes after time zero” value was determined as 3000 µg/mL.

Staying with this test, now noted: Table I; read-out: Ki, concentration of the inhibitor giving 50% of the control enzyme activity.
In the case of `CCOC(=O)N1C(=O)[C@H](CC)[C@H]1Oc1ccc(C(=O)O)cc1` (relative stereo), the Ki was found to be 2.1 µM. As for `CC[C@H]1C(=O)N(S(=O)(=O)c2ccc(C)cc2)[C@H]1C(=O)N(C)CC(=O)O` (relative stereo), the Ki was found to be 22 µM. Still for that read-out and setting: the figure for `CC[C@H]1C(=O)N(C(C)=O)[C@@H]1Oc1ccccc1` (relative stereo) [Table I: H; C2 H5 (trans); OPh; COCH3] is 4.3 µM; for `CC[C@H]1C(=O)N(S(=O)(=O)c2ccc(C)cc2)[C@H]1C(=O)N1CCCC1` (relative stereo) it is 27.7 µM; for `CC[C@H]1C(=O)N(C(C)=O)[C@@H]1Oc1ccc(C(=O)O)cc1` (relative stereo) it is 3.4 µM.

The test is the same for the next values; noted with them: Table IV, (per mole per second).
With `CCCC1(CCC)C(=O)N(C(=O)NC(C)c2ccccc2)C1Oc1ccc(C(=O)O)cc1` (single isomer, unassigned) [Table IV: C3 H7; C3 H7; O-(4-COOHPh); drawing 47 (higher Rf isomer)], the “kobs/I, second order rate constant of inactivation of the enzyme” value came to 4324 M⁻¹ s⁻¹.

Still in this test, the particulars now being: pH 7.5, Table I; read-out: kobs/I, second order rate constant of inactivation of the enzyme.
Consider `CCOC(=O)N1C(=O)[C@H](CC)[C@H]1OCC(=O)NCC(=O)O` (relative stereo), for which the kinact/KI turned out to be 1000 M⁻¹ s⁻¹. For the compound `CCOC(=O)N1C(=O)[C@H](CC)[C@H]1OCC(=O)O` (relative stereo), the kinact/KI turned out to be 512 M⁻¹ s⁻¹.

The test is the same for the next values; noted with them: pH 7.5, Table II, (per mole per second); read-out: kobs/I, second order rate constant of inactivation of the enzyme.
Turning to `CCC1(CC)C(=O)N(C(=O)NCc2ccccc2)C1Oc1ccc([C@H](NC(C)=O)C(=O)O)cc1` (some centres unmarked) [Table II: C2 H5; C2 H5; drawing 39; CH2 Ph], the kinact/KI worked out at 2420 M⁻¹ s⁻¹. As for `CCC1(CC)C(=O)N(C(=O)NCC2CCCCC2)C1Oc1ccc(C(=O)O)cc1` (centres unmarked), the kinact/KI is 1420 M⁻¹ s⁻¹. For the compound `CCC1(CC)C(=O)N(C(=O)NCc2ccc(C(=O)NS(=O)(=O)c3ccc(Cl)cc3)cc2)C1Oc1ccc(C(=O)O)cc1` (centres unmarked), the kinact/KI came to 1730 M⁻¹ s⁻¹. Turning to `CCC1(CC)C(=O)N(C(=O)NCc2ccccc2)C1Oc1ccc([N+](C)(C)C)cc1` (centres unmarked), the kinact/KI was determined as 1700 M⁻¹ s⁻¹. Take `CCC1(CC)C(=O)N(C(=O)NCc2ccc(-c3ccccc3)cc2)C1Oc1ccc(C(=O)CCC(=O)O)cc1` (centres unmarked): the kinact/KI was 107000 M⁻¹ s⁻¹. The same measure, in the same setting: the figure for `C=CCC1C(=O)N(C(=O)NCc2ccccc2)C1Oc1ccc(C(=O)O)cc1` (centres unmarked) is 5400 M⁻¹ s⁻¹; for `CCC1(CC)C(=O)N(C(=O)NCc2ccc(C(=O)O)cc2)C1Oc1ccc(C(C)=O)cc1` (centres unmarked) it is 2810 M⁻¹ s⁻¹. Still for that read-out and setting: the figure for `CCCC1(CC)C(=O)N(C(=O)NC(CC)c2ccccc2)C1Oc1ccc(CC(=O)O)cc1` (centres unmarked) is 54000 M⁻¹ s⁻¹; for `CCC1(CC)C(=O)N(C(=O)NCc2ccccc2)C1Oc1ccc(NC(C)=O)cc1` (centres unmarked) it is 3500 M⁻¹ s⁻¹; for `CCC1(CC)C(=O)N(C(=O)NCc2ccccc2)C1Oc1ccc(C(=O)NS(=O)(=O)c2ccc(Cl)cc2)cc1` (centres unmarked) [Table II: C2 H5; C2 H5; drawing 38; CH2 Ph] it is 6300 M⁻¹ s⁻¹. On the same count and under the same terms, as for `CCC1(CC)C(=O)N(C(=O)NCc2ccc(Oc3ccccc3)cc2)C1Oc1ccc(C(=O)O)cc1` (centres unmarked), the figure is 12000 M⁻¹ s⁻¹; as for `CCC1(CC)C(=O)N(C(=O)NCc2ccccc2)C1Oc1ccc([N+](=O)[O-])cc1` (centres unmarked), 6850 M⁻¹ s⁻¹; as for `CCC1(CC)C(=O)N(C(=O)NCc2ccc([N+](=O)[O-])cc2)C1Oc1ccc(C(=O)O)cc1` (centres unmarked), 5080 M⁻¹ s⁻¹. Take `CCC1(CC)C(=O)N(C(=O)NCc2ccc(C(C)=O)cc2)C1Oc1ccc(C(C)=O)cc1` (centres unmarked): the kinact/KI was 5920 M⁻¹ s⁻¹. As for `CCC1C(=O)N(C(=O)NCc2ccccc2)C1Oc1ccc(C(=O)O)cc1` (centres unmarked) [Table II: C2 H5; H; O-(4-COOHPh); CH2 Ph], the kinact/KI was determined as 4000 M⁻¹ s⁻¹. As for `COC1C(=O)N(C(=O)NCc2ccc3ccccc3c2)C1c1ccc(C(=O)O)cc1` (centres unmarked) [Table II: H; OMe; Ph-4-COOH; CH2-2-Naph], the kinact/KI was 1340 M⁻¹ s⁻¹. In the case of `CCC1(Cc2ccccc2)C(=O)N(C(=O)NCc2ccccc2)C1Oc1ccc(C(=O)O)cc1` (centres unmarked), the kinact/KI worked out at 87 M⁻¹ s⁻¹. With `CCC1(CC)C(=O)N(C(=O)NCc2ccccc2)C1Oc1ccc(CC(N)C(=O)O)cc1` (centres unmarked) [Table II: C2 H5; C2 H5; drawing 36; CH2 Ph], the kinact/KI is 2540 M⁻¹ s⁻¹. As for `CCCC1(CC)C(=O)N(C(=O)NCc2cccc(C(F)(F)F)c2)C1Oc1ccc(C(=O)O)cc1` (centres unmarked), the kinact/KI is 55000 M⁻¹ s⁻¹. In the case of `CCC1(CC)C(=O)N(C(=O)NCc2ccccc2)C1Oc1ccc(NC(=O)CCC(=O)O)cc1` (centres unmarked), the kinact/KI was 2570 M⁻¹ s⁻¹. On the same count and under the same terms, the figure for `CCC1(CC)C(=O)N(C(=O)NC(C)c2ccc(C3CCCCC3)c(Cl)c2)C1Oc1ccc(C(=O)O)cc1` (centres unmarked) is 20800 M⁻¹ s⁻¹.

The test is the same for the next values; noted with them: pH 7.5, Table III, (per mole per second); read-out: kobs/I, second order rate constant of inactivation of the enzyme.
For `CCC(NC(=O)N1C(=O)C(CC)(CC)C1OCC(=O)O)c1ccccc1` (centres unmarked) [Table III: OCH2COOH; CH(Et)Ph], the kinact/KI was determined as 5710 M⁻¹ s⁻¹.

Regarding `CCC1(CC)C(=O)N(C(=O)NCc2ccc(OCc3ccccc3)cc2)C1Oc1ccc(C(=O)O)cc1` (centres unmarked), the kinact/KI stood at 12000 M⁻¹ s⁻¹. Take `CCC1(CC)C(=O)N(C(=O)NCc2ccc(-c3cccc(C(=O)O)c3)cc2)C1Oc1ccc(C(=O)O)cc1` (centres unmarked): the kinact/KI is 14700 M⁻¹ s⁻¹. On to `CCC1(CC)C(=O)N(C(=O)NCc2ccc(C)cc2)C1Oc1ccc(C(=O)O)c(O)c1` (centres unmarked), for which the kinact/KI amounted to 9250 M⁻¹ s⁻¹. On to `CCC1(CC)C(=O)N(C(=O)NCc2ccc(C(C)(C)C)cc2)C1Oc1ccc(C(=O)O)cc1` (centres unmarked) [Table III: O-(4-COOHPh); CH2 Ph(4-tBu)], for which the kinact/KI worked out at 21800 M⁻¹ s⁻¹.

As for `CCC1(CC)C(=O)N(C(=O)NCc2ccc3cc(C(=O)O)ccc3c2)C1Oc1ccc(C(N)=O)cc1` (centres unmarked), the kinact/KI was 40600 M⁻¹ s⁻¹. Still for that read-out and setting: as for `C=CCOC1N(C(=O)NCc2ccc(-c3ccccc3)cc2)C(=O)C1(CC)CC` (centres unmarked) [Table III: O-(allyl); CH2 Ph-4-Ph], the figure is 12500 M⁻¹ s⁻¹. The same measure, in the same setting: as for `CCC1(CC)C(=O)N(C(=O)NCc2ccccc2)C1Sc1nnnn1C` (centres unmarked), the figure is 3660 M⁻¹ s⁻¹; as for `CCC1(CC)C(=O)N(C(=O)NCc2ccccc2)C1Sc1nc[nH]n1` (centres unmarked), 116 M⁻¹ s⁻¹.

The test is the same for the next values; noted with them: pH 7.5, Table IV, (per mole per second); read-out: kobs/I, second order rate constant of inactivation of the enzyme.
For the compound `CCC1C(=O)N(C(=O)N(Cc2ccccc2)Cc2ccccc2)C1Oc1ccc(C(=O)O)cc1` (centres unmarked), the kinact/KI came out at 5980 M⁻¹ s⁻¹. Consider `CCC[C@@H](NC(=O)N1C(=O)C(CC)(CC)C1Oc1ccc(CC(=O)O)cc1)c1ccc2occc2c1` (some centres unmarked), for which the kinact/KI came out at 847000 M⁻¹ s⁻¹.

The same test, now with this note: pH 7.5, Table V, (per mole per second); read-out: kobs/I, second order rate constant of inactivation of the enzyme.
Take `CCC[C@@H](NC(=O)N1C(=O)C(CC)(CC)[C@@H]1Oc1ccc(CC(=O)O)cc1)c1ccccc1` [Table V: 4-CH2 COOH; nPr; H]: the kinact/KI was 227000 M⁻¹ s⁻¹. Turning to `CCC1(CC)C(=O)N(C(=O)N[C@H](C)c2ccc(C)cc2)[C@H]1Oc1ccc(C(=O)O)cc1` [Table V: 4-COOH; Me; 4-Me], the kinact/KI amounted to 47000 M⁻¹ s⁻¹. Regarding `CC[C@@H](NC(=O)N1C(=O)C(CC)(CC)[C@@H]1Oc1ccc(CC(=O)O)cc1)c1ccccc1` [Table V: 4-CH2 COOH; Et; H], the kinact/KI worked out at 140000 M⁻¹ s⁻¹.

The test is the same for the next values; noted with them: pH 7.5, Table VI, (per mole per second); read-out: kobs/I, second order rate constant of inactivation of the enzyme.
With `CCC1(CC)C(=O)N(C(=O)N[C@H](C)c2ccc(-c3ccccc3Cl)cc2)[C@H]1Oc1ccc(C(=O)O)cc1` [Table VI: 4-COOH; Me; 4-(2'-ClPh)], the kinact/KI turned out to be 245000 M⁻¹ s⁻¹. Consider `CC[C@@H](NC(=O)N1C(=O)C(CC)(CC)[C@@H]1Oc1cccc(CC(=O)O)c1)c1ccccc1` [Table VI: 3-CH2 COOH; Et; H], for which the kinact/KI worked out at 81000 M⁻¹ s⁻¹.

`CCC1(CC)C(=O)N(C(=O)N[C@H](C)c2ccccc2)[C@H]1Oc1ccc(CCC(=O)O)cc1` [Table VI: 4-(CH2)2 COOH; Me; H]: the kinact/KI was 9480 M⁻¹ s⁻¹. In the case of `CCC[C@@H](NC(=O)N1C(=O)C(CC)(CC)[C@@H]1Oc1ccc(CC(=O)O)cc1)c1ccc(C)cc1` [Table VI: 4-CH2 COOH; nPr; 4-Me, (4S)-3,3-diethyl-1-[(R)-α-n-propyl-(4-methyl)-benzylaminocarbonyl]-4-[(4-carboxymethyl)-phenoxy]azetidin-2-one], the kinact/KI came to 557000 M⁻¹ s⁻¹. For `CCC[C@@H](NC(=O)N1C(=O)C(CC)(CC)[C@@H]1Oc1ccc(CC(=O)O)cc1)c1ccc2c(c1)OCO2` [(4S)-3,3-diethyl-1-[(R)-α-n-propyl-(3,4-methylenedioxy)-benzylaminocarbonyl]-4[(4-carboxymethyl)-phenoxy]azetidin-2-one], the kinact/KI is 867000 M⁻¹ s⁻¹. Regarding `CCC1(CC)C(=O)N(C(=O)N[C@@H](COC)c2ccccc2)[C@H]1Oc1ccc(CC(=O)O)cc1` [Table VI: 4-CH2 COOH; CH2 OMe(R); H], the kinact/KI stood at 11000 M⁻¹ s⁻¹. As for `CC[C@@H](NC(=O)N1C(=O)C(CC)(CC)[C@@H]1Oc1ccc(C(=O)O)cc1)c1ccc(-c2ccccc2)cc1` [Table VI: 4-COOH; Et; 4-Ph], the kinact/KI was 26400 M⁻¹ s⁻¹. For the compound `CCC[C@@H](NC(=O)N1C(=O)C(CC)(CC)[C@@H]1Oc1ccc(CC(=O)O)c(F)c1)c1ccc(C)cc1` [Table VI: 3-F,4-CH2 COOH; nPr; 4-Me, (4S)-3,3-Diethyl-1-[(R)-α-n-propyl-(4-methyl)benzylaminocarbonyl]-4-[(4-carboxymethyl-3-fluoro)phenoxy]azetidin-2-one], the kinact/KI amounted to 637000 M⁻¹ s⁻¹.

The test is the same for the next values; noted with them: pH 7.5, read-out: kobs/I, second order rate constant of inactivation of the enzyme.
Consider `CCOC(=O)N1C(=O)[C@H](CC)[C@H]1Oc1ccc(C(=O)O)cc1` (relative stereo), for which the kinact/KI stood at 8680 M⁻¹ s⁻¹. With `CC[C@H]1C(=O)N(S(=O)(=O)c2ccc(C)cc2)[C@H]1C(=O)N(C)CC(=O)O` (relative stereo), the kinact/KI was 165 M⁻¹ s⁻¹.

`CC[C@H]1C(=O)N(C(C)=O)[C@@H]1Oc1ccccc1` (relative stereo) [Table I: H; C2 H5 (trans); OPh; COCH3]: the kinact/KI is 5270 M⁻¹ s⁻¹. Take `CC[C@H]1C(=O)N(S(=O)(=O)c2ccc(C)cc2)[C@H]1C(=O)N1CCCC1` (relative stereo): the kinact/KI is 541 M⁻¹ s⁻¹. With `CC[C@H]1C(=O)N(C(C)=O)[C@@H]1Oc1ccc(C(=O)O)cc1` (relative stereo), the kinact/KI was 8730 M⁻¹ s⁻¹.

As to `CCCC1(C)C(=O)N(C(=O)NCc2ccccc2)C1Oc1ccc(C(=O)O)cc1` (centres unmarked), the kinact/KI came to 1900 M⁻¹ s⁻¹.
